Laboratory results from patent publication US11279726B2, “Norbornene-based amphipathic compound and utilization thereof” (Industry-University Cooperation Foundation Hanyang …, priority 2017, dated 2022).

Experiments:
[1] = Hydrodynamic radius / size distribution of micelles by dynamic light scattering (DLS); assay type: physicochemical; settings: 1.0 wt % agent
Experimental: A method for measuring the radius of a micelle is not particularly limited, and a method well known in the art may be used, and for example, the radius thereof may be measured using a dynamic light scattering (DLS) experiment.
(§1) To identify the characteristics of NBMs synthesized in Preparation Example 1 to 6 according to the synthetic method of Example 1, molecular weights (MWs) of NBMs, critical micelle concentrations (CMCs) and hydrodynamic radii (Rh) of the micelles were measured.
(§2) Specifically, the critical micelle concentrations (CMCs) were measured by fluorescent staining with diphenylhexatriene (DPH), and the hydrodynamic radii (Rh) of the micelle formed with individual agents (1.0 wt %) were measured by dynamic light scattering (DLS).

[2] = Critical micelle concentration by fluorescent staining with diphenylhexatriene (DPH); assay type: physicochemical; settings: aqueous solution
Experimental: A method for measuring CMC is not particularly limited, and a method widely known in the art may be used, for example, by fluorescence staining with diphenylhexatriene (DPH).
as §1, §2

[3] = target: T1, uric acid-xanthine/H+ symporter (UapA) (Emericella nidulans, UniProt Q07307, G411V); experiment: UapA extraction and thermal stability by fluorescence size exclusion chromatography (FSEC); design: species or system Aspergillus nidulans; settings: 1.0 wt % amphiphile, 10 minutes at 40° C.; compared with DDM
T1 construct: made in house; host or cells: Saccharomyces cerevisiae FGY217
Experimental: An experiment for measuring the structural stability of uric acid-xanthine/H+ symporter (UapA) isolated from Aspergillus nidulans using NBMs was performed. The structural stability of UapA was evaluated using […].
Specifically, UapAG411VΔ1-11 (hereinafter, referred to as “UapA”) was expressed as GFP fusion in Saccharomyces cerevisiae FGY217 strain and isolated in a sample buffer (20 mM Tris (pH 7.5), 150 mM NaCl, 0.03% DDM, 0.6 mM xanthine) according to the method described in the literature written by J. Leung et al. (Mol. Membr. Biol. 2013, 30, 32-42). Membranes containing UapA were resuspended in PBS, 10 mM imidazole pH 8.0, 150 mM NaCl, 10% glycerol, and the protein concentration was measured. The membranes were adjusted to a concentration of 1 mg·ml^−1 and 1 ml aliquots were individually incubated with DDM or NBMs at a final amphiphilic material concentration of 1.0 wt % for 10 minutes at 40° C. 100 μl aliquots were removed from each tube, and a fluorescence reading was taken for each sample before and after ultracentrifugation at 150,000 g for 10 minutes to remove insoluble material. The remaining soluble fraction for each condition was submitted to fluorescent size exclusion chromatography (FSEC) using a Superose 6 column (GE Healthcare) equilibrated with DDM.

[4] = target: T2, Salmonella typhimurium melibiose permease (MelBSt) (Salmonella typhimurium, UniProt P30878); experiment: MelBSt extraction and thermostability (SDS-PAGE / western blotting); settings: 1.5 wt %
T2 construct: made in house; host or cells: E. coli DW2 (ΔmelB, ΔlacZY)
Experimental: An experiment of measuring structural stability of MelBSt (Salmonella typhimurium melibiose permease) protein with NBMs was carried out. The MelBSt protein was extracted from the membrane using NBMs or DDM, and the amounts and structure of the extracted proteins were analyzed by SDS-PAGE and western blotting. The concentration of the used amphiphilic compound was 1.5 wt %. The proteins were extracted at four temperatures (0, 45, 55, and 65° C.) and incubated at the same temperature for 90 minutes, and the amounts of the remaining proteins solubilized in an aqueous solution were measured, so as to simultaneously evaluate both performances of the compound such as protein extraction efficiency and stabilization activity. The amounts of the proteins extracted and stabilized by respective amphiphilic molecules were represented as relative values (%) to the amounts of total proteins contained in the membrane sample not treated with an amphiphilic molecule.
Specifically, Salmonella typhimurium melibiose permease (MelBSt) with a C-terminal 10-His tag was expressed in E. coli DW2 cells (^ΔmelB and ^ΔlacZY) using plasmid pK95^ΔAHB/WT MelBSt/CH10. Cell growth and membrane preparation were carried out according to the method described in the literature written by A. S. Ethayathulla et al. (Nat. Commun. 2014, 5, 3009). Protein assays were carried out with a Micro BCA kit (Thermo Scientific, Rockford, Ill.). The measurement of MelBSt stability was carried out on NBMs or DDM according to the protocol described by P. S. Chae et al. (Nat. Methods 2010, 7, 1003-1008). Membrane samples containing MelBSt (final protein concentration was 10 mg/mL) were incubated with a solubilization buffer (20 mM sodium phosphate, pH 7.5, 200 mM NaCl, 10% glycerol, 20 mM melibiose) and 1.5% (w/v) of DDM or NBMs (X-NBM-C10, D-NBM-C10, X-NBM-C11 or D-NBM-C11) at four different temperatures (0, 45, 55, 65° C.) for 90 minutes. To remove insoluble materials, following ultracentrifugation at 355,590 g using a Beckman Optimal™ MAX ultracentrifuge with TLA-100 rotor for 45 minutes at 4° C. was performed, and 20 μg of each protein sample was separated by SDS-16% PAGE, and then immunoblotted with a Penta-His-HRP antibody (Qiagen, Germantown, Md.). MelBSt was detected using SuperSignal West Pico chemiluminescent substrate by an ImageQuant LAS 4000 Biomolecular Imager (GE Health Care Life Science).

[5] = target: T3, human β2 adrenergic receptor (β2AR) (Homo sapiens, UniProt P07550); experiment: β2AR stability: [3H]-DHA ligand binding activity of solubilized receptor
T3 construct: made in house
Experimental: An experiment of measuring the stability of human β2 adrenergic receptor (β2AR) and G-protein-coupled receptor (GPCR) for NBMs was carried out. That is, the receptor was extracted from the cell membranes by DDM and purified in the same amphiphilic compound. The DDM-purified receptor was diluted in individual DDM- or NBM-containing buffers to adjust the final compound concentration to be CMC+0.2 wt %. The receptor stability was assessed by measuring ligand binding activity using [3H]-DHA.
To measure long-term stability of human β2AR with NBMs (D-NBM-C11 and X-NBM-C11) showing an excellent ligand binding activity of the receptor in the previous experiment, a radio-labeled ligand binding experiment was performed by the following method. β2AR was purified using 0.1% DDM (D. M. Rosenbaum et al., Science, 2007, 318, 1266-1273), and finally concentrated to approximately 10 mg/ml (approximately 200 μM). A main binding mixture containing 10 nM [^3H]-DHA supplemented with 0.5 mg/ml BSA was prepared in 0.2% amphiphilic compound (DDM or NBMs (D-NBM-C11 and X-NBM-C11)) using β2AR purified with DDM. The receptor purified with DDM or NBMs was incubated with 10 nM [^3H]-DHA at room temperature for 30 minutes. The mixture was loaded onto a G-50 column, the fractions were collected in a 1 ml binding buffer (20 mM HEPES pH 7.5, 100 mM NaCl, containing 0.5 mg/ml BSA and 20× CMC individual amphiphilic compounds). In addition, each fraction was supplemented with a 15 ml scintillation fluid, and receptor-bound [^3H]-DHA was measured using a scintillation counter (Beckman) at regular intervals for 3 days. The binding capacity of [^3H]-DHA was shown as a bar chart (FIG. 11a).
In addition, β2AR was extracted from the membrane using 1.0 wt % of DDM or X-NBM-C11 and purified at 0.2 wt % for the same individual amphiphilic compounds. Structural stability of the receptor was assessed by ligand binding activity, which was measured with sample aliquots at regular intervals during 7-day incubation at room temperature. Each experiment was carried out in triplicate (FIG. 12b).

β2AR-Gs complex = β2AR-Gs complex (Homo sapiens, UniProt P07550); experiment: Negative stain EM analysis of β2AR-Gs complex
Experimental: A β2AR-Gs protein complex was prepared for electron microscopy using the conventional negative staining protocol, and imaged at room temperature with a Tecnai T12 electron microscope operated at 120 kV using low-dose procedures. Images were recorded at a magnification of 71,138× and a defocus value of approximately 1.4μ using a Gatan US4000 CCD camera. All images were binned (2×2 pixels) to obtain a pixel size of 4.16 A at the specimen level. Particles were manually excised using e2boxer (part of the EMAN2 software suite). 2D reference-free alignment and classification of particle projections were performed using ISAC. 14,556 projections of β2AR-Gs were subjected to ISAC, producing 199 classes consistent over two-way matching and accounting for 10,100 particle projections.

Compound	Rh (nm), hydrodynamic radius of micelles [1]	CMC [2]	CMC (wt %) [2]	Retention of monodispersed UapA-GFP peak after heating (FSEC) [3]	MelBSt membrane protein stabilization activity (overall) ([4]; elevated temperature)	Long-term ligand binding activity of β2AR ([3H]-DHA) ([5]; 0.2% amphiphile, room temperature, 3 days (7 days for receptor extracted with the amphiphile))	Initial ligand binding activity of β2AR ([3H]-DHA) ([5]; DDM-purified receptor diluted to CMC+0.2 wt % amphiphile)	MelBSt protein extraction (solubilization) efficiency ([4]; 0° C. and 45° C., 90 minutes)	MelBSt protein extraction efficiency ([4]; 0° C., 90 minutes)	Amount of solubilized MelBSt protein ([4]; 65° C., 90 minutes)	Particle dispersity of β2AR-Gs complex in negative stain EM (β2AR-Gs complex)
CCCCCCCCCOCC1C2CC([C@@H]1COCCCCCCCCC)[C@H](O[C@@H]1OC(CO)[C@@H](O[C@H]3OC(CO)[C@@H](O)C(O)C3O)C(O)C1O)C2O[C@@H]1OC(CO)[C@@H](O[C@H]2OC(CO)[C@@H](O)C(O)C2O)C(O)C1O (stereo partly drawn) [D-NBM-C9]	3.3 ± 0.04 nm	~0.012 mM	~0.0013 wt %	low recovery of monodispersed protein peak	–	–	–	–	–	–	–
CCCCCCCCCCOCC1C2CC([C@@H]1COCCCCCCCCCC)[C@H](O[C@@H]1OC(CO)[C@@H](O[C@H]3OC(CO)[C@@H](O)C(O)C3O)C(O)C1O)C2O[C@@H]1OC(CO)[C@@H](O[C@H]2OC(CO)[C@@H](O)C(O)C2O)C(O)C1O (stereo partly drawn) [D-NBM-C10]	3.5 ± 0.03 nm	~0.008 mM	~0.0009 wt %	slightly lower effect than DDM	excellent membrane protein stabilization activity	–	–	–	–	–	–
CCCCCCCCCCCCO[C@@H]1O[C@H](CO)[C@@H](O[C@H]2O[C@H](CO)[C@@H](O)[C@H](O)[C@H]2O)[C@H](O)[C@H]1O [DDM, n-dodecyl-β-D-maltopyranoside, reference compound]	3.4 ± 0.03 nm	~0.17 mM	~0.0087 wt %	single monodispersed peak with relatively high intensity	–	rapidly decreased over time	excellent initial ligand binding activity	high MelBSt protein extraction efficiency	higher protein extraction efficiency than NBMs	no MelBSt protein solubilized in an aqueous solution was detectable	aggregated particles
CCCCCCCCCCC(CCCCCCCCCC)(CO[C@@H]1O[C@H](CO)[C@@H](O[C@H]2O[C@H](CO)[C@@H](O)[C@H](O)[C@H]2O)[C@H](O)[C@H]1O)CO[C@@H]1O[C@H](CO)[C@@H](O[C@H]2O[C@H](CO)[C@@H](O)[C@H](O)[C@H]2O)[C@H](O)[C@H]1O [MNG-3, reference compound]	–	–	–	ineffective in preventing protein denaturation/aggregation	–	–	–	–	–	–	–
CCCCCCCCCOCC1C2CC([C@H]1COCCCCCCCCC)[C@H](O[C@@H]1OC(CO)[C@@H](O[C@H]3OC(CO)[C@@H](O)C(O)C3O)C(O)C1O)C2O[C@@H]1OC(CO)[C@@H](O[C@H]2OC(CO)[C@@H](O)C(O)C2O)C(O)C1O (stereo partly shown) [X-NBM-C9]	3.7 ± 0.03 nm	~0.010 mM	~0.0011 wt %	more or less comparable to DDM	–	–	–	–	–	–	–
CCCCCCCCCCOCC1C2CC([C@H]1COCCCCCCCCCC)[C@H](O[C@@H]1OC(CO)[C@@H](O[C@H]3OC(CO)[C@@H](O)C(O)C3O)C(O)C1O)C2O[C@@H]1OC(CO)[C@@H](O[C@H]2OC(CO)[C@@H](O)C(O)C2O)C(O)C1O (stereo partly shown) [X-NBM-C10]	4.0 ± 0.02 nm	~0.007 mM	~0.0008 wt %	more or less comparable to DDM	–	–	–	–	–	–	–
